Tests used:
[1] = Adsorption test to porous material; format: physicochemical; conditions: for Amount of adsorbed Compound A: shaken for two hours
Description: To a solution prepared by completely dissolving 1.5 mg of Compound A in 1.5 mL of dichloromethane, 15 mg of porous material (light anhydrous silicic acid (Sylysia 350, produced by Fuji Silysia Chemical Co., Ltd.) or silicon dioxide (Sylysia 530, produced by Fuji Silysia Chemical Co., Ltd.) was dispersed, and this mixture was shaken for two hours using Roter RT-50 (TAITEC) and an amount of Compound A which adsorbed simply to the light anhydrous silicic acid or silicon dioxide (μg/mg porous material) was calculated by measuring the absorbance (280 nm) of a filtrate obtained by filtering with a membrane filter (0.45 μm PTFE). The amount of Compound A which adsorbed simply to the light anhydrous silicic acid or silicon dioxide ([…] porous material) was calculated by the following computational expression.
Concentration of Compound A in the filtrate (μg/mL)=ABS÷Slope of analytical curve×Dilution ratio
Here, ABS represents the absorbance.
Amount of adsorbed Compound A (g/mg porous material)=(Concentration of Compound A before the porous material was dispersed (g/mL)−Concentration of Compound A in the filtrate (g/mL))×Volume of Compound A solution (mL)÷Mass of porous material (mg)
Calculation was also conducted using ethanol in place of dichloromethane as a comparison.

[2] = cited from earlier work
[3] = Differential scanning calorimetry analysis; format: physicochemical; conditions: when dichloromethane was used
[4] = system: interleukin-lp production; conditions: known from Patent Document 1; cited from earlier work

- Amount of adsorbed Compound A ([1]; Dichloromethane, light anhydrous silicic acid (Sylysia 350)): 17.6 μg/mg porous material
- Amount of adsorbed Compound A ([1]; Dichloromethane, silicon dioxide (Sylysia 530)): 24.8 μg/mg porous material
- Amount of adsorbed Compound A ([1]; Ethanol, light anhydrous silicic acid (Sylysia 350)): 0.0 μg/mg porous material
- Amount of adsorbed Compound A ([1]; Ethanol, silicon dioxide (Sylysia 530)): 0.0 μg/mg porous material
- Adsorption of Compound A to the porous material (in words) ([1]; dichloromethane, light anhydrous silicic acid): adsorbed
- Adsorption of Compound A to the porous material (in words) ([1]; dichloromethane, silicon dioxide): adsorbed
- Adsorption of Compound A to the porous material (in words) ([1]; ethanol, light anhydrous silicic acid): did not adsorb
- Adsorption of Compound A to the porous material (in words) ([1]; ethanol, silicon dioxide): did not adsorb
- Solid state of Compound A [3]: existed in amorphous state
Structure (SMILES): CSc1ccc(-c2nn(Cc3ccccc3)c(=O)cc2-c2ccc(Cl)cc2)cc1 [Compound A, 2-benzyl-5-(4-chlorophenyl)-6-[4-(methylthio)phenyl]-2H-pyridazin-3-one]
- Solubility in water [2]: extremely insoluble
- interleukin-lp production suppressive effect [4]: excellent

Reference: patent US20090005384A1, “Method for Producing Adsorptive Porous Body” (Kowa Co., Ltd, priority 2005, published 2009)
